Earlier results on 1 molecule are cited in article PMC8230491 (Pharmaceuticals, 2021).

Molecules are shown by their SMILES.

The conditions of the data set: KET COOH; protonated LYS γ-NH2; no reference given.

For the molecule `NCCCC[C@H](N)C(=O)O` [LYS, lysine], the pKa is reported as 10.29.

As a reminder, the pKa is the pH at which an ionisable group is half protonated.
